From patent US12582643B2, “Tasquinimod or a pharmaceutically acceptable salt thereof for use in combination therapy” (ACTIVE BIOTECH AB, priority 2020, dated 2026) come the findings set out here.

Assay [1] relates to Human NCI-H929 (H929) multiple myeloma cells. The assay can be described thus: H929 human xenograft model, tasquinimod with bortezomib or dexamethasone (Example 1). Particulars: s.c. H929 in NSG mice; TQ 30 mg/kg drinking water; VEL 0.5 mg/kg i.v. every 4 days; compared to control mice; FIG. 1. It counts as in vivo. The procedure:
Human NCI-H929 (H929) multiple myeloma cells were inoculated subcutaneously in NSG mice. Tumour-bearing mice were treated with vehicle (VC), tasquinimod (TQ) 30 mg/kg ad lib in the drinking water starting when there were palpable tumors (i.e. day 18 after tumor inoculation); bortezomib (VEL), 0.5 mg/kg, i.v. every 4 days; dexamethasone (DEX), 10 mg/kg, i.p., 5 days on, 2 days off; or the combinations (TQ+DEX) and (TQ+VEL), and. Statistics: Two-way ANOVA; p-values VC vs TQ p=0.0009, VC vs VEL p=0.041, VC vs DEX p=0.0081, DEX vs DEX+TQ ns, TQ vs TQ+VEL p=0.0002, VEL vs VEL+TQ p=0.0361. The results are illustrated in FIG. 1.
A general note: In xenograft studies the graft and the host belong to different species.

The test system of the next assay is MM1.S cells. Kind of assay: Human MM1.S xenograft model of multiple myeloma, tasquinimod with lenalidomide (Example 2). It is filed as in vivo. Particulars: s.c. MM1.S in NSG mice; TQ 30 mg/kg/day drinking water; LEN 5 mg/kg oral gavage; from day 14; compared to control mice; FIG. 2. The procedure: The effect of tasquinimod in combination with lenalidomide was studied in a human MM1.S model of multiple myeloma. The MM1.S cells were established from a patient with IgA myeloma with characteristics typical of human myeloma cells (Greenstein et al., Exp Hematol. 2003 April; 31(4):271-82). MM1.S model was established by subcutaneous inoculation of 5×10^6 MM1.S cells into NSG mice. Treatment with tasquinimod (TQ), 30 mg/kg/day in the drinking water; lenalidomide (LEN), 5 mg/kg via oral gavage, 5 consecutive days with 2 days breaks until the endpoint, or the combination of tasquinimod and lenalidomide (TQ+LEN), started when the tumors were measurable (day 14 after tumor cell injection). Tumor size was monitored using a caliper and tumor volume was calculated. Differences between groups were evaluated by using two-way ANOVA; p-values: TQ vs TQ+LEN p=0.0001, LEN vs LEN+TQ p=0.0183. The results are illustrated in FIG. 2.

`CC(C)C[C@H](NC(=O)[C@H](Cc1ccccc1)NC(=O)c1cnccn1)B(O)O` [bortezomib, [(1R)-3-methyl-1-[[(2S)-3-phenyl-2-(pyrazine-2-carbonylamino)propanoyl]amino]butyl]-boronic acid]: in assay [1], the “multiple myeloma tumor growth (tumour area), result in words” value is reported as “reduced the multiple myeloma tumor growth”.
With `Nc1cccc2c1CN(C1CCC(=O)NC1=O)C2=O` (stereo not shown) [lenalidomide, 3-(4-amino-1-oxoisoindolin-2-yl)piperidine-2,6-dione], in the assay on MM1.S cells, the “multiple myeloma growth (tumour volume), result in words” value was “reduced the multiple myeloma growth”.
On to `COc1cccc2c1c(O)c(C(=O)N(C)c1ccc(C(F)(F)F)cc1)c(=O)n2C` [tasquinimod, 4-hydroxy-5-methoxy-N,1-dimethyl-2-oxo-N-[4-(trifluoromethyl)phenyl]-1,2-dihydroquinoline-3-carboxamide], for which, in assay [1], the “multiple myeloma tumor growth (tumour area), result in words” value is “reduced the multiple myeloma tumor growth”. Also, the “multiple myeloma growth (tumour volume), result in words” value in the assay on MM1.S cells is “reduced the multiple myeloma growth”.
